Counter-ions that a name gives are not always drawn.
Target: T1, purified recombinantly expressed human SSAO (Homo sapiens, UniProt Q16853)
T1 construct: made in house
T1 sequence (Q16853 29-763 limits assumed): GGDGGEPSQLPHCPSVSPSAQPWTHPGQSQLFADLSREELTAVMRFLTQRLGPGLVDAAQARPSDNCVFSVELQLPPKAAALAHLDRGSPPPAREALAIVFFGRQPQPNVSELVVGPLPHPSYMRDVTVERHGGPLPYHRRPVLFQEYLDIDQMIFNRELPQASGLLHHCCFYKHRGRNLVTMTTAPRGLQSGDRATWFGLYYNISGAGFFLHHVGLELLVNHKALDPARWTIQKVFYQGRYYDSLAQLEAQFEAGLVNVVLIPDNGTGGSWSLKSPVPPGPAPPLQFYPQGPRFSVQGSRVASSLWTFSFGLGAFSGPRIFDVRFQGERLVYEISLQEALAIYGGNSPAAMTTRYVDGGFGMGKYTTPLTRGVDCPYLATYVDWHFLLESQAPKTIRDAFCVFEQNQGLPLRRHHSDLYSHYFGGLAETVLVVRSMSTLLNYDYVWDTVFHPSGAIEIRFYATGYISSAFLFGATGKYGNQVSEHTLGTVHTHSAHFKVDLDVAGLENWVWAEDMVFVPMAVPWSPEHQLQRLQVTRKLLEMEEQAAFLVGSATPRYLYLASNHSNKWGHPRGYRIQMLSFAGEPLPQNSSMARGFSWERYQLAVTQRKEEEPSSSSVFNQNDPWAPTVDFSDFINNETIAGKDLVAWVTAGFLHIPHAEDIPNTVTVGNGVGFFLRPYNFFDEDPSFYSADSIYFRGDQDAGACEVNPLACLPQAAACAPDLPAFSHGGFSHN
Test: SSAO enzyme inhibition assay (benzylamine substrate; hydrogen peroxide/HRP-coupled or 14C aldehyde detection)
Type: biochemical
Details: human recombinant SSAO, RT, benzylamine as substrate; read-out: SSAO inhibitory activity IC50
Protocol: All primary assays were performed at RT. with purified recombinantly expressed human SSAO. Enzyme was prepared essentially as described in Ohman et al. (Protein Expression and Purification 46 (2006) 321 331). In addition, secondary- and selectivity assays were performed using SSAO prepared from various tissues or purified rat recombinant SSAO. The enzyme activity was assayed with benzylamine as substrate by measuring either benzaldehyde production, using ^14C-labeled substrate, or by utilizing the production of hydrogen peroxide in a horseradish peroxidase (HRP) coupled reaction. Briefly, test compounds were dissolved in dimethyl sulfoxide (DMSO) to a concentration of 10 mM. Dose-response measurements were assayed by either creating 1:10 serial dilutions in DMSO to produce a 7 point curve or by making 1:3 serial dilutions in DMSO to produce 11 point curves. The top concentrations were adjusted depending on the potency of the compounds and subsequent dilution in reaction buffer yielded a final DMSO concentration ≦2%.
In a horseradish peroxidase (HRP) coupled reaction, hydrogen peroxide oxidation of 10-acetyl-3,7-dihydroxyphenoxazine produced resorufin, which is a highly fluorescent compound (Zhout and Panchuk-Voloshina. Analytical Biochemistry 253 (1997) 169-174; Amplex® Red Hydrogen Peroxide/peroxidase Assay kit, Invitrogen A22188). Enzyme and compounds in 50 mM sodium phosphate, pH 7.4 were set to pre-incubate in flat-bottomed microtiter plates for approximately 15 minutes before initiating the reaction by addition of a mixture of HRP, benzylamine and Amplex reagent. Benzylamine concentration was fixed at a concentration corresponding to the Michaelis constant, determined using standard procedures. Fluorescence intensity was then measured at several time points during 1-2 hours, exciting at 544 nm and reading the emission at 590 nm. For the human SSAO assay final concentrations of the reagents in the assay wells were: SSAO enzyme 1 μg/ml, benzylamine 100 μM, Amplex reagent 20 μM, HRP 0.1 U/mL and varying concentrations of test compound. The inhibition was measured as % decrease of the signal compared to a control without inhibitor (only diluted DMSO). The background signal from a sample containing no SSAO enzyme was subtracted from all data points. Data was fitted to a four parameter logistic model and IC50 values were calculated using the GraphPad Prism 4 or XLfit 4 programs.
SSAO activity was assayed using 14C-labeled benzylamine and analysed by measuring radioactive benzaldehyde. In a white 96-well optiplate (Packard), 20 μL of diluted test compound was pre-incubated at RT. with 20 μL SSAO enzyme for approximately 15 minutes with continuous agitation. All dilutions were made with PBS. The reaction was initiated by adding 20 μL of the benzylamine substrate solution containing [7-14C] Benzylamine hydrochloride (CFA589, GE Healthcare). The plate was incubated for 1 hour as above after which the reaction was stopped by acidification (10 μL 1 M HCl). Then 90 μL Micro Scint-E solution (Perkin-Elmer) was added to each well and the plate was continuously mixed for 15 minutes. Phase separation occurred instantly and activity was read in a Topcount scintillation counter (Perkin-Elmer). In the final reaction well, the human recombinant SSAO concentration was 10 μg/ml. In order to optimize sensitivity, the substrate concentration was decreased as compared to the HRP coupled assay in order to get a higher fraction of radioactive product. In the human SSAO assay, benzylamine concentration was 40 μM (0.2 μCi/mL). Data was analysed as above.

Row | IC50 [nM] | SMILES
1 | < 100 | NCCN1CCC(c2cn(-c3ccc(Cl)cc3)c3cnccc23)CC1 [Example 1, 2,2,2-Trifluoroacetic acid; 2-{4-[1-(4-chlorophenyl)-1H-pyrrolo[2,3-c]pyridin-3-yl]piperidin-1-yl}ethan-1-amine]
2 | < 100 | NCCCOC(=O)N1CCC(c2cn(-c3ccc(Cl)cc3)c3cnccc23)CC1 [Example 2, 3-Aminopropyl 4-[1-(4-chlorophenyl)-1H-pyrrolo[2,3-c]pyridin-3-yl]piperidine-1-carboxylate]
3 | < 100 | CN(C)CCCC(=O)N1CCC(c2cn(-c3ccc(Cl)cc3)c3cnccc23)CC1 [Example 3, 1-{4-[1-(4-Chlorophenyl)-1H-pyrrolo[2,3-c]pyridin-3-yl]piperidin-1-yl}-4-(dimethylamino)butan-1-one; 2,2,2-trifluoroacetic acid]
4 | < 100 | NCCCCC(=O)N1CCC(c2cn(-c3ccc(Cl)cc3)c3cnccc23)CC1 [Example 4, 5-Amino-1-{4-[1-(4-chlorophenyl)-1H-pyrrolo[2,3-c]pyridin-3-yl]piperidin-1-yl}pentan-1-one]
5 | < 100 | NCCNC(=O)N1CCC(c2cn(-c3ccc(Cl)cc3)c3cnccc23)CC1 [Example 5, N-(2-Aminoethyl)-4-[1-(4-chlorophenyl)-1H-pyrrolo[2,3-c]pyridin-3-yl]piperidine-1-carboxamide]
6 | < 100 | NCCCNC(=O)N1CCC(c2cn(-c3ccc(Cl)cc3)c3cnccc23)CC1 [Example 6, N-(3-Aminopropyl)-4-[1-(4-chlorophenyl)-1H-pyrrolo[2,3-c]pyridin-3-yl]piperidine-1-carboxamide]
7 | < 100 | CN(C)CCCNC(=O)N1CCC(c2cn(-c3ccc(Cl)cc3)c3cnccc23)CC1 [Example 7, 4-[1-(4-Chlorophenyl)-1H-pyrrolo[2,3-c]pyridin-3-yl]-N-[3-(dimethylamino)propyl]piperidine-1-carboxamide]
8 | < 100 | O=C(N1CCNCC1)N1CCC(c2cn(-c3ccc(Cl)cc3)c3cnccc23)CC1 [Example 8, 1-({4-[1-(4-Chlorophenyl)-1H-pyrrolo[2,3-c]pyridin-3-yl]piperidin-1-yl}carbonyl)piperazine]
9 | 100 to 500 | O=C(N1CCOCC1)N1CCC(c2cn(-c3ccc(Cl)cc3)c3cnccc23)CC1 [Example 9, 4-({4-[1-(4-Chlorophenyl)-1H-pyrrolo[2,3-c]pyridin-3-yl]piperidin-1-yl}carbonyl)morpholine]
10 | < 100 | O=C(N1CCCNCC1)N1CCC(c2cn(-c3ccc(Cl)cc3)c3cnccc23)CC1 [Example 10, 1-({4-[1-(4-Chlorophenyl)-1H-pyrrolo[2,3-c]pyridin-3-yl]piperidin-1-yl}carbonyl)-1,4-diazepane]
11 | 500 to 2500 | CCOC(=O)C1CCN(c2nn(-c3ccc(Cl)cc3)c3cnccc23)CC1 [Example 11, Ethyl 1-[1-(4-chlorophenyl)-1H-pyrazolo[3,4-c]pyridin-3-yl]piperidine-4-carboxylate]
12 | 100 to 500 | CCOC(=O)C1CCN(c2nn(-c3ccc(C)cc3)c3cnccc23)CC1 [Example 12, Ethyl 1-[1-(4-methylphenyl)-1H-pyrazolo[3,4-c]pyridin-3-yl]piperidine-4-carboxylate]
13 | 100 to 500 | O=C(O)C1CCN(c2nn(-c3ccc(Cl)cc3)c3cnccc23)CC1 [Example 13, 1-[1-(4-Chlorophenyl)-1H-pyrazolo[3,4-c]pyridin-3-yl]piperidine-4-carboxylic acid hydrochloride]
14 | 100 to 500 | NCCNC(=O)C1CCN(c2nn(-c3ccc(Cl)cc3)c3cnccc23)CC1 [Example 14, N-(2-Aminoethyl)-1-[1-(4-chlorophenyl)-1H-pyrazolo[3,4-c]pyridin-3-yl]piperidine-4-carboxamide dihydrochloride]
15 | 500 to 2500 | O=C(C1CCN(c2nn(-c3ccc(Cl)cc3)c3cnccc23)CC1)N1CCOCC1 [Example 15, 4-({1-[1-(4-Chlorophenyl)-1H-pyrazolo[3,4-c]pyridin-3-yl]piperidin-4-yl}carbonyl) morpholine]
16 | 100 to 500 | O=C(C1CCN(c2nn(-c3ccc(Cl)cc3)c3cnccc23)CC1)N1CCNCC1 [Example 16, 1-({1-[1-(4-Chlorophenyl)-1H-pyrazolo[3,4-c]pyridin-3-yl]piperidin-4-yl}carbonyl)piperazine dihydrochloride]
17 | < 100 | Cc1ccc(-n2nc(N3CCOCC3CO)c3ccncc32)cc1 (stereo not drawn) [Example 17, {4-[1-(4-Methylphenyl)-1H-pyrazolo[3,4-c]pyridin-3-yl]morpholin-3-yl}methanol]
18 | < 100 | Cc1ccc(-n2nc(N3CCOC(CO)C3)c3ccncc32)cc1 (stereo not drawn) [Example 18, {4-[1-(4-Methylphenyl)-1H-pyrazolo[3,4-c]pyridin-3-yl]morpholin-2-yl}methanol]
19 | < 100 | OC[C@@H]1COCCN1c1nn(-c2ccc(Cl)cc2)c2cnccc12 [Example 19, [(3R)-4-[1-(4-Chlorophenyl)-1H-pyrazolo[3,4-c]pyridin-3-yl]morpholin-3-yl]methanol]
20 | 100 to 500 | COC(=O)C1COCCN1c1nn(-c2ccc(Cl)cc2)c2cnccc12 (stereo not drawn) [Example 20, Methyl 4-[1-(4-chlorophenyl)-1H-pyrazolo[3,4-c]pyridin-3-yl]morpholine-3-carboxylate]
21 | < 100 | NCCNC(=O)C1COCCN1c1nn(-c2ccc(Cl)cc2)c2cnccc12 (stereo not drawn) [Example 21, N-(2-Aminoethyl)-4-[1-(4-chlorophenyl)-1H-pyrazolo[3,4-c]pyridin-3-yl]morpholine-3-carboxamide]
22 | < 100 | OCCC1COCCN1c1nn(-c2ccc(Cl)cc2)c2cnccc12 (stereo not drawn) [Example 22, 2-{4-[1-(4-Chlorophenyl)-1H-pyrazolo[3,4-c]pyridin-3-yl]morpholin-3-yl}ethan-1-ol]
23 | 500 to 2500 | COC(=O)C1CCCCN1c1nn(-c2ccc(Cl)cc2)c2cnccc12 (stereo not drawn) [Example 23, Methyl 1-[1-(4-chlorophenyl)-1H-pyrazolo[3,4-c]pyridin-3-yl]piperidine-2-carboxylate]
24 | < 100 | NCCNC(=O)C1CCCCN1c1nn(-c2ccc(Cl)cc2)c2cnccc12 (stereo not drawn) [Example 24, N-(2-Aminoethyl)-1-[1-(4-chlorophenyl)-1H-pyrazolo[3,4-c]pyridin-3-yl]piperidine-2-carboxamide dihydrochloride]
25 | < 100 | O=C(C1CCCCN1c1nn(-c2ccc(Cl)cc2)c2cnccc12)N1CCNCC1 (stereo not drawn) [Example 25, 1-({1-[1-(4-Chlorophenyl)-1H-pyrazolo[3,4-c]pyridin-3-yl]piperidin-2-yl}carbonyl) piperazine]
26 | 100 to 500 | Cc1ccc(-n2cc(N3CCOCC3)c3ccncc32)cc1 [Example 26, 4-[1-(4-Methylphenyl)-1H-pyrrolo[2,3-c]pyridin-3-yl]morpholine]
27 | < 100 | Oc1cncc2c1c(C1CCNCC1)cn2-c1ccc(Cl)cc1 [Example 27, 1-(4-Chlorophenyl)-3-(piperidin-4-yl)-1H-pyrrolo[2,3-c]pyridin-4-ol]
